Laboratory results reported in PubChem BioAssay (NCI).
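GI50 marks 50% less growth. TGI: total growth inhibition.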

Legend:
Assay in all cases: NCI anticancer screen, dose series, 384-well format
[1] = system: CAKI-1 renal
[2] = system: A498 renal
[3] = system: MALME-3M melanoma
[4] = system: HOP-62 NSCLC
[5] = system: NCI-H522 lung
[6] = system: HL-60(TB) leukemia
[7] = system: PC-3 prostate
[8] = system: SK-MEL-28 melanoma
[9] = system: UACC-62 melanoma
[10] = system: OVCAR-4 ovarian
[11] = system: HS 578T breast
[12] = system: SF-268 CNS
[13] = system: SR leukemia
[14] = system: TK-10 renal
[15] = system: DU-145 prostate
[16] = system: ACHN renal
[17] = system: NCI-H322M lung
[18] = system: HCT-116 colon
[19] = system: SN12C renal
[20] = system: CCRF-CEM leukemia
[21] = system: 786-0 renal
[22] = system: KM12 colon
[23] = system: COLO 205 colon
[24] = system: SK-MEL-5 melanoma
[25] = system: HCC-2998 colon
[26] = system: MCF7 breast
[27] = system: RPMI-8226 leukemia
[28] = system: SK-OV-3 ovarian
[29] = system: K-562 leukemia
[30] = system: LOX IMVI melanoma
[31] = system: SNB-19 CNS
[32] = system: HT29 colon
[33] = system: OVCAR-3 ovarian
[34] = system: M14 melanoma
[35] = system: MOLT-4 leukemia
[36] = system: MDA-MB-468 breast
[37] = system: U251 glioblastoma
[38] = system: HOP-92 NSCLC
[39] = system: BT-549 breast
[40] = system: NCI-H23 lung
[41] = system: SW-620 colon
[42] = system: IGROV1 ovarian
[43] = system: MDA-MB-231 breast
[44] = system: SF-295 CNS
[45] = system: NCI-H226 lung
[46] = system: NCI-H460 NSCLC
[47] = system: NCI/ADR-RES ovarian
[48] = system: HCT-15 colon
[49] = system: OVCAR-8 ovarian
[50] = system: SF-539 CNS
[51] = system: EKVX NSCLC
[52] = system: MDA-MB-435 melanoma
[53] = system: T-47D breast
[54] = system: UACC-257 melanoma
[55] = system: UO-31 renal
[56] = system: SNB-75 CNS
[57] = system: RXF 393 renal
[58] = system: A549 NSCLC

SMILES: NC(=O)c1ccc2nc(-c3ccc(C4(N)CCC4)cc3)c(-c3ccccc3)n2n1
- GI50 [1]: 2540 nM
- TGI [1]: 16.8 µM
- GI50 [2]: 389 nM
- TGI [2]: 10.6 µM
- GI50 [3]: 2140 nM
- TGI [3]: 17.1 µM
- GI50 [4]: 12.1 µM
- TGI [4]: 24.5 µM
- GI50 [5]: 13.7 µM
- TGI [5]: 26.6 µM
- GI50 [6]: 4.26 µM
- TGI [6]: 17 µM
- GI50 [7]: 250 nM
- TGI [7]: 12.8 µM
- GI50 [8]: 6.42 µM
- TGI [8]: 20.2 µM
- GI50 [9]: 3.01 µM
- TGI [9]: 16.4 µM
- GI50 [10]: 14.6 µM
- TGI [10]: 28.2 µM
- GI50 [11]: 1780 nM
- TGI [11]: 11.8 µM
- GI50 [12]: 12.3 µM
- TGI [12]: 24.8 µM
- GI50 [13]: 230 nM
- TGI [13]: 990 nM
- GI50 [14]: 5.7 µM
- TGI [14]: 20.5 µM
- GI50 [15]: 11.8 µM
- TGI [15]: 24.6 µM
- GI50 [16]: 11.2 µM
- TGI [16]: 23.3 µM
- GI50 [17]: 9.27 µM
- TGI [17]: 21.6 µM
- GI50 [18]: 5.69 µM
- TGI [18]: 18.9 µM
- GI50 [19]: 8.08 µM
- TGI [19]: 20.9 µM
- GI50 [20]: 498 nM
- TGI [20]: 10.7 µM
- GI50 [21]: 2220 nM
- TGI [21]: 13.6 µM
- GI50 [22]: 7.11 µM
- TGI [22]: 20.4 µM
- GI50 [23]: 2280 nM
- TGI [23]: 16.9 µM
- GI50 [24]: 3.81 µM
- TGI [24]: 16.3 µM
- GI50 [25]: 11.2 µM
- TGI [25]: 23.2 µM
- GI50 [26]: 125 nM
- TGI [26]: 12.4 µM
- GI50 [27]: 2390 nM
- TGI [27]: 10.3 µM
- GI50 [28]: 538 nM
- TGI [28]: 12.7 µM
- GI50 [29]: 4.2 µM
- TGI [29]: 16.2 µM
- GI50 [30]: 8.43 µM
- TGI [30]: 20.7 µM
- GI50 [31]: 13 µM
- TGI [31]: 25.9 µM
- GI50 [32]: 2620 nM
- TGI [32]: 17.9 µM
- GI50 [33]: 683 nM
- TGI [33]: 18 µM
- GI50 [34]: 12.8 µM
- TGI [34]: 25.5 µM
- GI50 [35]: 305 nM
- TGI [35]: 1930 nM
- GI50 [36]: 125 nM
- TGI [36]: 8.31 µM
- GI50 [37]: 10.4 µM
- TGI [37]: 22.2 µM
- GI50 [38]: 5.02 µM
- TGI [38]: 18.7 µM
- GI50 [39]: 2010 nM
- TGI [39]: 15.2 µM
- GI50 [40]: 4.85 µM
- TGI [40]: 17.5 µM
- GI50 [41]: 15.8 µM
- TGI [41]: 29.3 µM
- GI50 [42]: 250 nM
- TGI [42]: 11.7 µM
- GI50 [43]: 11.4 µM
- TGI [43]: 23.7 µM
- GI50 [44]: 944 nM
- TGI [44]: 11 µM
- GI50 [45]: 8.96 µM
- TGI [45]: 21.5 µM
- GI50 [46]: 1130 nM
- TGI [46]: 15.8 µM
- GI50 [47]: 15.3 µM
- TGI [47]: 29.3 µM
- GI50 [48]: 11.9 µM
- TGI [48]: 24.4 µM
- GI50 [49]: 12.8 µM
- TGI [49]: 25.5 µM
- GI50 [50]: 3.59 µM
- TGI [50]: 16.6 µM
- GI50 [51]: 5.35 µM
- TGI [51]: 20.3 µM
- GI50 [52]: 12.6 µM
- TGI [52]: 25.2 µM
- GI50 [53]: 28.2 nM
- TGI [53]: 2990 nM
- GI50 [54]: 11.3 µM
- TGI [54]: 23.4 µM
- GI50 [55]: 2910 nM
- TGI [55]: 16 µM
- GI50 [56]: 1250 nM
- TGI [56]: 14.6 µM
- GI50 [57]: 1600 nM
- TGI [57]: 10.7 µM
- GI50 [58]: 5.31 µM
- TGI [58]: 18.6 µM
